Measured values as given in patent US20130102081A1, “Detection and Characterization of Protein Degradation, Protein Degradation Modulation and Protein Degradation Modulators” (priority 2011, published 2013).

Biological target: T1, trypsin (Bos taurus, UniProt P00760)
T1 construct: gene PRSS1
T1 sequence (P00760 24-246): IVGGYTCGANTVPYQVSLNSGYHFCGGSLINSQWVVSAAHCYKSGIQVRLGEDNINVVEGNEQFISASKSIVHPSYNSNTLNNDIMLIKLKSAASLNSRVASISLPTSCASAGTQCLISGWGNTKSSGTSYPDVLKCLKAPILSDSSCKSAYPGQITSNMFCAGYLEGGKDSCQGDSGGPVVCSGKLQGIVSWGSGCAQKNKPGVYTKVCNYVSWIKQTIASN
Assay: EMR spectroscopy of spin-labeled BSA degradation by the protease trypsin, with and without modulators
Type: biochemical
Details: EMR peak height versus time, compared with protease alone
Description: The spin label is attached to a protein and the control or un-degraded protein EMR spectrum recorded. Degradation of the protein by any degradation mechanism creates products with predictably different angular mobility than that of the control. […] Degradation is further characterized through quantitative analysis of the product and reactant subpopulations. Modulation of that degradation, regardless of the mechanism of modulation, can be expressed in a variety of ways, only one of which is an alteration in concentration of the degradation subpopulations. For example, inhibition of degradation is expressed by a reduction in concentration of relatively mobile subpopulation(s), degradation promotion by an increase in the mobile subpopulation. Chemical, biochemical and biological entities are readily tested for their potential as modulators.
Shown are EMR spectra of spin-labeled bovine serum albumin (BSA, spin label attached to BSA under conditions which favor attachment to a sulfhydryl). Key features of the intact protein's spectrum are denoted by the numbers 1 and 5. At 7, 21 and 40 minutes (spectra 2, 3 and 4 respectively) following the addition of the protease, trypsin, a second, more mobile, product population appears, characterized by three, relatively sharp peaks superimposed on the spectrum of the intact protein. Protein degradation is clearly expressed with products expressing more rapid angular mobility than reactants. Both reactant and product subpopulations are apparent in the spectra with the growth of the product population matched by a concomitant loss of reactants. Subpopulation spectra are amenable to further analyses in accord with practices associated with the selected observation method.
Shown are four EMR spectra (6, 7, 8, 9) for conditions identical to those in FIG. 1 of 5 with the exception that trypsin inhibitor is present. The presence and action of the modulator is clear and unambiguous.
Shown is the concentration of products, as reflected in the heights of the rightmost peaks labeled 1, 2, 3, and 4 in FIG. 1 of 5, versus time. […]

CC(C)C[C@H](NC(=O)[C@@H](NC(=O)N[C@@H](Cc1ccccc1)C(=O)O)[C@@H]1CCN=C(N)N1)C(=O)N[C@H](C=O)Cc1ccccc1 [chymostatin]
modulation of protein degradation (time course of appearance of the mobile product subpopulation): Modulation of protein degradation is clear

Cc1c(O)cccc1C(=O)N[C@@H](CSc1ccccc1)[C@H](O)CN1C[C@H]2CCCC[C@H]2C[C@H]1C(=O)NC(C)(C)C [Nelfinavir]
modulation of protein degradation (time course of appearance of the mobile product subpopulation): promotion of degradation

leupeptin hemisulfate
modulation of protein degradation (time course of appearance of the mobile product subpopulation): Modulation of protein degradation is clear
